Source: patent US20160122386A1, “V1A RECEPTOR AGONISTS” (FERRING B.V., priority 2014, published 2016)
Starred links: 1 amine or outer side, 2 acyl side, 3 side chain; linkers in the order of their positions; H or OH if unused. Positions of bridges follow the written chain, without caps; N, C: chain ends. Non-standard residues stand in square brackets, D forms with d. Residues, ends and D or L forms follow the SMILES beside them. Chains are numbered I, II in the order given. *: point of attachment. d(isoGln) = NC(=O)[C@@H](CCC(=O)[*:2])N[*:1]; isoGln = NC(=O)[C@H](CCC(=O)[*:2])N[*:1]; d(εLys) = N[C@H](CCCCN[*:1])C(=O)[*:2]; εLys = N[C@@H](CCCCN[*:1])C(=O)[*:2]; Aad = N[C@@H](CCCC(=O)O)C(=O)O; Cit = NC(=O)NCCC[C@H](N)C(=O)O; Dab = NCC[C@H](N)C(=O)O; PhAc = O=C(Cc1ccccc1)*

Target: T1, human V1aR (Homo sapiens, UniProt P37288)
T1 construct: expressed in transfected cells
Experiment: Agonist activity at vasopressin V1a receptors, cell-based FLIPR calcium assay
Conditions: for Emax: read-out: Efficacy Avg. (%)
In short: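 HEK Flp-In cells stably expressing human V1aR were loaded with Calcium 4 dye plus 2.5 mM probenecid for 1 h at 37 °C, then given half-log compound concentrations (final 0.1% DMSO) on FLIPR Tetra.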

T1 sequence (P37288 whole entry): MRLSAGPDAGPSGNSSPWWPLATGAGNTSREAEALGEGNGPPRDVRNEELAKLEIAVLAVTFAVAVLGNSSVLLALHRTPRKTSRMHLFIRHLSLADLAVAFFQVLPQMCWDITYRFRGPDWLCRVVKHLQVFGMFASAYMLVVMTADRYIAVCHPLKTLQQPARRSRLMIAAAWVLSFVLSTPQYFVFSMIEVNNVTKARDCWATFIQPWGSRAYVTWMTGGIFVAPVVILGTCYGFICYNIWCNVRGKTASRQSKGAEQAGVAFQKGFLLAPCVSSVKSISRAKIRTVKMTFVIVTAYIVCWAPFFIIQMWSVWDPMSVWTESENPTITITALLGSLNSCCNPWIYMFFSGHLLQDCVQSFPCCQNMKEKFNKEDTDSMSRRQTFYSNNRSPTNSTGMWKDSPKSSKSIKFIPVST

CC[C@H](C)[C@@H]1NC(=O)[C@H](Cc2ccccc2)NC(=O)[C@@H](N)CSSC[C@@H](C(=O)N2CCC[C@H]2C(=O)N[C@@H](CCNC(=O)[C@@H](N)CCCCNC(=O)CC[C@H](NC(=O)[C@H](CCCNC(=N)N)NC(=O)[C@@H]2CCCN2C(=O)[C@H](CCCNC(N)=O)NC(=O)[C@H](CC(N)=O)NC(=O)[C@H](CCC(N)=O)NC(=O)[C@H](Cc2ccccc2)NC(=O)[C@@H](Cc2ccc(OC)cc2)NC(=O)Cc2ccccc2)C(N)=O)C(=O)NCC(N)=O)NC(=O)[C@H](CC(N)=O)NC(=O)[C@H](CCCC(N)=O)NC1=O [Compound 47] (I: H-CFI[Aad](NH2)NCP[Dab]G-NH2 / II: PhAc-[dY](Me)FQN[Cit]PR[isoGln][εLys]; disulfide I:1-I:6 (inferred); amide I:8-II:C (inferred))
EC50: 1.8 nM | Emax: 45%

CC[C@H](C)[C@@H]1NC(=O)[C@H](Cc2ccccc2)NC(=O)[C@@H](O)CSSC[C@@H](C(=O)N2CCC[C@H]2C(=O)N[C@@H](CCNC(=O)[C@@H](N)CCCCNC(=O)CC[C@H](NC(=O)[C@H](CCCNC(=N)N)NC(=O)[C@@H]2CCCN2C(=O)[C@H](CCCNC(N)=O)NC(=O)[C@H](CC(N)=O)NC(=O)[C@H](CCC(N)=O)NC(=O)[C@H](Cc2ccccc2)NC(=O)[C@@H](Cc2ccc(OC)cc2)NC(=O)Cc2ccccc2)C(N)=O)C(=O)NCC(N)=O)NC(=O)[C@H](CC(N)=O)NC(=O)[C@H](CCCC(N)=O)NC1=O [Compound 48]
EC50: 1.4 nM | Emax: 67%

CC[C@H](C)[C@@H]1NC(=O)[C@H](Cc2ccccc2)NC(=O)[C@@H](N)CSSC[C@@H](C(=O)N2CCC[C@H]2C(=O)N[C@@H](CCNC(=O)[C@H](N)CCCCNC(=O)CC[C@H](NC(=O)[C@H](CCCNC(=N)N)NC(=O)[C@@H]2CCCN2C(=O)[C@H](CCCNC(N)=O)NC(=O)[C@H](CC(N)=O)NC(=O)[C@H](CCC(N)=O)NC(=O)[C@H](Cc2ccccc2)NC(=O)[C@@H](Cc2ccc(OC)cc2)NC(=O)Cc2ccccc2)C(N)=O)C(=O)NCC(N)=O)NC(=O)[C@H](CC(N)=O)NC(=O)[C@H](CCC(N)=O)NC1=O [Compound 49] (I: H-CFIQNCP[Dab]G-NH2 / II: PhAc-[dY](Me)FQN[Cit]PR[isoGln][d(εLys)]; disulfide I:1-I:6; amide I:8-II:C)
EC50: 0.76 nM | Emax: 55%

CC[C@H](C)[C@@H]1NC(=O)[C@H](Cc2ccccc2)NC(=O)[C@@H](N)CSSC[C@@H](C(=O)N2CCC[C@H]2C(=O)N[C@@H](CCNC(=O)[C@@H](N)CCCCNC(=O)CC[C@H](NC(=O)[C@H](CCCNC(=N)N)NC(=O)[C@@H]2CCCN2C(=O)[C@H](C)NC(=O)[C@H](CC(N)=O)NC(=O)[C@H](CCC(N)=O)NC(=O)[C@H](Cc2ccccc2)NC(=O)[C@@H](Cc2ccc(OC)cc2)NC(=O)Cc2ccccc2)C(N)=O)C(=O)NCC(N)=O)NC(=O)[C@H](CC(N)=O)NC(=O)[C@H](CCCC(N)=O)NC1=O [Compound 50] (I: H-CFI[Aad](NH2)NCP[Dab]G-NH2 / II: PhAc-[dY](Me)FQNAPR[isoGln][εLys]; disulfide I:1-I:6; amide I:8-II:C)
EC50: 0.9 nM | Emax: 40%

CC[C@H](C)[C@@H]1NC(=O)[C@H](Cc2ccccc2)NC(=O)[C@@H](N)CSSC[C@@H](C(=O)N2CCC[C@H]2C(=O)N[C@@H](CCNC(=O)[C@H](N)CCCCNC(=O)CC[C@H](NC(=O)[C@H](CCCNC(=N)N)NC(=O)[C@@H]2CCCN2C(=O)[C@H](C)NC(=O)[C@H](CC(N)=O)NC(=O)[C@H](CCC(N)=O)NC(=O)[C@H](Cc2ccccc2)NC(=O)[C@@H](Cc2ccc(OC)cc2)NC(=O)Cc2ccccc2)C(N)=O)C(=O)NCC(N)=O)NC(=O)[C@H](CC(N)=O)NC(=O)[C@H](CCCC(N)=O)NC1=O [Compound 51] (I: H-CFI[Aad](NH2)NCP[Dab]G-NH2 / II: PhAc-[dY](Me)FQNAPR[isoGln][d(εLys)]; disulfide I:1-I:6; amide I:8-II:C)
EC50: 1.4 nM | Emax: 43%

CC[C@H](C)[C@@H]1NC(=O)[C@H](Cc2ccccc2)NC(=O)[C@@H](N)CSSC[C@@H](C(=O)N2CCC[C@H]2C(=O)N[C@@H](CCNC(=O)[C@H](N)CCCCNC(=O)CC[C@H](NC(=O)[C@H](CCCNC(=N)N)NC(=O)[C@@H]2CCCN2C(=O)[C@H](CCCNC(N)=O)NC(=O)[C@H](CC(N)=O)NC(=O)[C@H](CCC(N)=O)NC(=O)[C@H](Cc2ccccc2)NC(=O)[C@@H](Cc2ccc(OC)cc2)NC(=O)Cc2ccccc2)C(N)=O)C(=O)NCC(N)=O)NC(=O)[C@H](CC(N)=O)NC(=O)[C@H](CCCC(N)=O)NC1=O [Compound 52] (I: H-CFI[Aad](NH2)NCP[Dab]G-NH2 / II: PhAc-[dY](Me)FQN[Cit]PR[isoGln][d(εLys)]; disulfide I:1-I:6; amide I:8-II:C)
EC50: 1.5 nM | Emax: 47%

CC[C@H](C)[C@@H]1NC(=O)[C@H](Cc2ccccc2)NC(=O)[C@@H](N)CSSC[C@@H](C(=O)N2CCC[C@H]2C(=O)N[C@@H](CCNC(=O)[C@@H](N)CCCCNC(=O)CC[C@@H](NC(=O)[C@H](CCCNC(=N)N)NC(=O)[C@@H]2CCCN2C(=O)[C@H](C)NC(=O)[C@H](CC(N)=O)NC(=O)[C@H](CCC(N)=O)NC(=O)[C@H](Cc2ccccc2)NC(=O)[C@@H](Cc2ccc(OC)cc2)NC(=O)Cc2ccccc2)C(N)=O)C(=O)NCC(N)=O)NC(=O)[C@H](CC(N)=O)NC(=O)[C@H](CCCC(N)=O)NC1=O [Compound 53] (I: H-CFI[Aad](NH2)NCP[Dab]G-NH2 / II: PhAc-[dY](Me)FQNAPR[d(isoGln)][εLys]; disulfide I:1-I:6; amide I:8-II:C)
EC50: 1.7 nM | Emax: 43%

CC[C@H](C)[C@@H]1NC(=O)[C@H](Cc2ccccc2)NC(=O)[C@@H](N)CSSC[C@@H](C(=O)N2CCC[C@H]2C(=O)N[C@@H](CCNC(=O)[C@@H](N)CCCCNC(=O)CC[C@@H](NC(=O)[C@H](CCCNC(=N)N)NC(=O)[C@@H]2CCCN2C(=O)[C@H](C)NC(=O)[C@H](CC(N)=O)NC(=O)[C@H](CCC(N)=O)NC(=O)[C@H](Cc2ccccc2)NC(=O)[C@@H](Cc2ccc(OC)cc2)NC(=O)Cc2ccccc2)C(N)=O)C(=O)NCC(N)=O)NC(=O)[C@H](CC(N)=O)NC(=O)[C@H](CCC(N)=O)NC1=O [Compound 54] (I: H-CFIQNCP[Dab]G-NH2 / II: PhAc-[dY](Me)FQNAPR[d(isoGln)][εLys]; disulfide I:1-I:6; amide I:8-II:C)
EC50: 1.4 nM | Emax: 51%

CC[C@H](C)[C@@H]1NC(=O)[C@H](Cc2ccccc2)NC(=O)[C@@H](N)CSSC[C@@H](C(=O)N2CCC[C@H]2C(=O)N[C@@H](CCNC(=O)[C@H](N)CCCCNC(=O)CC[C@@H](NC(=O)[C@H](CCCNC(=N)N)NC(=O)[C@@H]2CCCN2C(=O)[C@H](CCCNC(N)=O)NC(=O)[C@H](CC(N)=O)NC(=O)[C@H](CCC(N)=O)NC(=O)[C@H](Cc2ccccc2)NC(=O)[C@@H](Cc2ccc(OC)cc2)NC(=O)Cc2ccccc2)C(N)=O)C(=O)NCC(N)=O)NC(=O)[C@H](CC(N)=O)NC(=O)[C@H](CCC(N)=O)NC1=O [Compound 55] (I: H-CFIQNCP[Dab]G-NH2 / II: PhAc-[dY](Me)FQN[Cit]PR[d(isoGln)][d(εLys)]; disulfide I:1-I:6; amide I:8-II:C)
Emax: 56%

CC[C@H](C)[C@@H]1NC(=O)[C@H](Cc2ccccc2)NC(=O)[C@@H](N)CSSC[C@@H](C(=O)N2CCC[C@H]2C(=O)N[C@@H](CCNC(=O)[C@H](N)CCCCNC(=O)CC[C@@H](NC(=O)[C@H](CCCNC(=N)N)NC(=O)[C@@H]2CCCN2C(=O)[C@H](C)NC(=O)[C@H](CC(N)=O)NC(=O)[C@H](CCC(N)=O)NC(=O)[C@H](Cc2ccccc2)NC(=O)[C@@H](Cc2ccc(OC)cc2)NC(=O)Cc2ccccc2)C(N)=O)C(=O)NCC(N)=O)NC(=O)[C@H](CC(N)=O)NC(=O)[C@H](CCC(N)=O)NC1=O [Compound 56] (I: H-CFIQNCP[Dab]G-NH2 / II: PhAc-[dY](Me)FQNAPR[d(isoGln)][d(εLys)]; disulfide I:1-I:6; amide I:8-II:C)
EC50: 1.8 nM | Emax: 60%

CC[C@H](C)[C@@H]1NC(=O)[C@H](Cc2ccccc2)NC(=O)[C@@H](N)CSSC[C@@H](C(=O)N2CCC[C@H]2C(=O)N[C@@H](CCNC(=O)[C@@H](N)CCCCNC(=O)CC[C@@H](NC(=O)[C@H](CCCNC(=N)N)NC(=O)[C@@H]2CCCN2C(=O)[C@H](CCCNC(N)=O)NC(=O)[C@H](CC(N)=O)NC(=O)[C@H](CCC(N)=O)NC(=O)[C@H](Cc2ccccc2)NC(=O)[C@@H](Cc2ccc(OC)cc2)NC(=O)Cc2ccccc2)C(N)=O)C(=O)NCC(N)=O)NC(=O)[C@H](CC(N)=O)NC(=O)[C@H](CCC(N)=O)NC1=O [Compound 57] (I: H-CFIQNCP[Dab]G-NH2 / II: PhAc-[dY](Me)FQN[Cit]PR[d(isoGln)][εLys]; disulfide I:1-I:6; amide I:8-II:C)
EC50: 1.4 nM | Emax: 63%

CC[C@H](C)[C@@H]1NC(=O)[C@H](Cc2ccccc2)NC(=O)[C@@H](N)CSSC[C@@H](C(=O)N2CCC[C@H]2C(=O)N[C@@H](CCNC(=O)[C@H](N)CCCCNC(=O)[C@H](CCCCNC(C)=O)NC(=O)CC[C@H](NC(=O)[C@H](CCCNC(=N)N)NC(=O)[C@@H]2CCCN2C(=O)[C@H](C)NC(=O)[C@H](CC(N)=O)NC(=O)[C@H](CCC(N)=O)NC(=O)[C@H](Cc2ccccc2)NC(=O)[C@@H](Cc2ccc(OC)cc2)NC(=O)Cc2ccccc2)C(N)=O)C(=O)NCC(N)=O)NC(=O)[C@H](CC(N)=O)NC(=O)[C@H](CCCC(N)=O)NC1=O [Compound 58] (I: H-CFI[Aad](NH2)NCP[Dab]G-NH2 / II: PhAc-[dY](Me)FQNAPR[isoGln]K(Ac)[d(εLys)]; disulfide I:1-I:6; amide I:8-II:C)
EC50: 2.6 nM | Emax: 26%

CC[C@H](C)[C@@H]1NC(=O)[C@H](Cc2ccccc2)NC(=O)[C@@H](N)CSSC[C@@H](C(=O)N2CCC[C@H]2C(=O)N[C@@H](CCNC(=O)[C@H](N)CCCCNC(=O)CC[C@H](NC(=O)[C@H](CCCNC(=N)N)NC(=O)[C@@H]2CCCN2C(=O)[C@H](CCN)NC(=O)[C@H](CC(N)=O)NC(=O)[C@H](CCC(N)=O)NC(=O)[C@H](Cc2ccccc2)NC(=O)[C@@H](Cc2ccc(OC)cc2)NC(=O)Cc2ccccc2)C(N)=O)C(=O)NCC(N)=O)NC(=O)[C@H](CC(N)=O)NC(=O)[C@H](CC(N)=O)NC1=O [Compound 59] (I: H-CFINNCP[Dab]G-NH2 / II: PhAc-[dY](Me)FQN[Dab]PR[isoGln][d(εLys)]; disulfide I:1-I:6; amide I:8-II:C)
Emax: 26%
